The text below walks through data of article PMC3433420 (PLoS ONE, 2012).

As usually defined, the Kd is the constant that tells how readily two partners part at equilibrium.

Test [1] addresses PIK3R2-NC tandem SH2 domains (Homo sapiens, UniProt O00459). Put plainly: FP saturation binding assay.
A further test has as its target SHC2-PTB domain (Homo sapiens, UniProt P98077). Description: FP saturation binding assay.
Test [2] deals with T1, PTPN11-NC tandem SH2 domains (Homo sapiens, UniProt Q06124).
T1 sequence (Q06124 6-216 limits assumed): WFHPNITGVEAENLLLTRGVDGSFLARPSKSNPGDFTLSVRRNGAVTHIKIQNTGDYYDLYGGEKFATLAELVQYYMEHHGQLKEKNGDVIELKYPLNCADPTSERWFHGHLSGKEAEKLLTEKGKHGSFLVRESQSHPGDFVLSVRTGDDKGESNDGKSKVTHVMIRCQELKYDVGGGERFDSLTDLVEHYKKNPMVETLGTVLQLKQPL
Put plainly: FP saturation binding assay.

Another test deals with T2, SH2D1A SH2 domain (Homo sapiens, UniProt O60880).
T2 sequence (O60880 6-104 limits assumed): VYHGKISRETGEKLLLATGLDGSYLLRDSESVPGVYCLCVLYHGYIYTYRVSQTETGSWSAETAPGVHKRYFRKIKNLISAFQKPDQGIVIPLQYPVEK
Description: FP saturation binding assay.

A further test has as its target T3, SH2D1B SH2 domain (Homo sapiens, UniProt O14796).
T3 sequence (O14796 5-101 limits assumed): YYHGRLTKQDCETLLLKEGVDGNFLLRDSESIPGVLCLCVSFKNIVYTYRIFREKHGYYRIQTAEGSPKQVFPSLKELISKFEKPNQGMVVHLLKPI
Description: FP saturation binding assay.

For test [3], the target named is SYK-NC tandem SH2 domains (Homo sapiens, UniProt P43405). Description: FP saturation binding assay.
For a further test, the target named is NCK2 SH2 domain (Homo sapiens, UniProt O43639). Put plainly: FP saturation binding assay.
The next test has as its target T4, PIK3R1-N SH2 domain (Homo sapiens, UniProt P27986).
T4 construct: thioredoxin; made in house; host or cells: E. coli BL21(DE3)pLysS
Put plainly: biochemical. The note with it: protein PIK3R1-N; high-confidence ErbB interactions; mean of replicate hits. Format: binding.

Another test has as its target T5, PIK3R3-N SH2 domain (Homo sapiens, UniProt Q92569).
T5 construct: 6X His; thioredoxin; made in house; host or cells: E. coli BL21(DE3)pLysS
Put plainly: FP saturation binding assay. The note with it: protein PIK3R3-N; high-confidence ErbB interactions; mean of replicate hits. The essentials: (§1)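 Rhodamine-labeled peptides (10 nM final) were titrated with 12 SH2 domain concentrations (0.002–10 µM) in 20 mM HEPES, 100 mM KCl, 0.1% Tween-20, 5 mM DTT, pH 7.8. After 20 min at room temperature in the dark, FP (ex 530/em 555 nm) was read. KDs came from nonlinear least-squares fits.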

Test [4] has as its target T6, PIK3R3-NC tandem SH2 domains (Homo sapiens, UniProt Q92569).
T6 construct: the tandem protein was included in our analysis with all internal amino acids linking the domains; 6X His; thioredoxin; made in house; host or cells: E. coli BL21(DE3)pLysS
Description: FP saturation binding assay. The note with it: protein PIK3R3-NC; high-confidence ErbB interactions; mean of replicate hits. The essentials:
as §1

The target in a further test is T7, PTK6 SH2 domain (Homo sapiens, UniProt Q13882).
T7 construct: from the PTK6 SH2 domain; 6X His; thioredoxin; made in house; host or cells: E. coli BL21(DE3)pLysS
Description: FP saturation binding assay. Particulars: protein PTK6; high-confidence ErbB interactions; mean of replicate hits. The essentials:
as §1

The next test has as its target T8, SRC SH2 domain (Homo sapiens, UniProt P12931).
T8 construct: between the c-Src SH2 domain and ErbB1 in our FP assay; 6X His; thioredoxin; made in house; host or cells: E. coli BL21(DE3)pLysS
Put plainly: FP saturation binding assay. The note with it: protein SRC; high-confidence ErbB interactions; mean of replicate hits. The essentials:
as §1

The next test has as its target T9, YES1 SH2 domain (Homo sapiens, UniProt P07947).
T9 construct: 6X His; thioredoxin; made in house; host or cells: BL21(DE3)pLysS E. coli
Put plainly: FP saturation binding assay. Particulars: protein YES1; high-confidence ErbB interactions; mean of replicate hits. A digest of the protocol:
as §1

A further test addresses T10, PLCG1-C SH2 domain (Homo sapiens, UniProt P19174).
T10 construct: The 6X His-tagged SH2 domain proteins used in the assay, PLCG1-C, SHC4, VAV2; thioredoxin; made in house; host or cells: E. coli BL21(DE3)pLysS
T10 sequence (P19174 668-756 limits assumed): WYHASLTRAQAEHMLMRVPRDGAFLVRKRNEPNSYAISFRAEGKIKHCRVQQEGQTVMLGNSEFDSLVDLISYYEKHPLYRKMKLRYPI
Description: biochemical. Format: binding. Particulars: protein PLCG1-C; high-confidence ErbB interactions; mean of replicate hits.

For the next test, the target named is T11, GRAP2 SH2 domain (Homo sapiens, UniProt O75791).
T11 sequence (O75791 58-149 limits assumed): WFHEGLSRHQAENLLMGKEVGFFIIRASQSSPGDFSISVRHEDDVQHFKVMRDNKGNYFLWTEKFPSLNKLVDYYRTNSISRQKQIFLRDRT
Description: FP saturation binding assay.

Another test has as its target SH2D2A SH2 domain (Homo sapiens, UniProt Q9NP31). Put plainly: FP saturation binding assay.
The target of the next test is SH2 and PTB domains. Put plainly: In-house protein microarrays (with or without 5 mM DTT), protein named per line. Format: binding, human. The note with it: in-house protein microarray, protein named in c0 of the line, sheet ErbB4 pY733 (18-mer). The protocol: 300 pL of purified recombinant proteins and a thioredoxin tag control were spotted at a concentration of ∼40 µM in duplicate onto aldehyde-coated microscope slides (Erie Scientific Company, Portsmouth, NH) using a Nano-Plotter (NP) 2.1/E noncontact microarrayer (GeSiM, Munich, Germany). 16 identical microarrays per slide were printed in a 2×8 (column by row) format with distances of 9 mm between individual arrays; each array consisted of a 14×14 configuration of spots 400 µm apart. Following printing at a constant humidity level of 50%, slides were desiccated overnight and stored at −80°C. For peptide probing, array slides were transferred to 96-well microplates (TeleChem International, Inc., Sunnyvale, CA) and sandwiched with silicone gaskets. Prior to peptide addition, aldehyde sites were quenched with buffer B (20 mM HEPES, 100 mM KCl, 0.1% Tween-20, 5 mM DTT, pH 7.8) containing 1% bovine serum albumin (BSA) (w/v) for one hour at room temperature; moderate agitation was applied in a plate shaker (IKA, Germany) to displace glycerol from the surface area of protein sample spots. […] The arrays were subsequently washed once with 300 µL of buffer B and once with 300 µL of ddH2O. Residual water was removed by centrifugation; slides were stored under desiccation in the dark until analysis.
Microarray slides were scanned at a resolution of 10 µm using a GenePix 4000B microarray scanner and analyzed using GenePix Pro v6.0 software (Molecular Devices, Sunnyvale, CA). To independently visualize protein spots irrespective of peptide binding, samples were printed simultaneously with 400 nM of Cyanine-5 (Cy5) labeled bovine serum albumin (BSA). […] Following spot layout identification via Cy5 labeled BSA, the mean fluorescence intensity of rhodamine for duplicate protein spots was quantified and normalized by subtracting the corresponding mean fluorescence intensity of thioredoxin. Normalized fluorescence values were then imported into MATLAB and KDs determined as previously described.

“And” between values parts separate entries of the source, which are not always exact repeats. Equal entries are not always repeated. Residues, ends and D or L forms follow the SMILES beside them.

Chain of PIK3R2-NC tandem SH2 domains (O00459 330-716 limits assumed): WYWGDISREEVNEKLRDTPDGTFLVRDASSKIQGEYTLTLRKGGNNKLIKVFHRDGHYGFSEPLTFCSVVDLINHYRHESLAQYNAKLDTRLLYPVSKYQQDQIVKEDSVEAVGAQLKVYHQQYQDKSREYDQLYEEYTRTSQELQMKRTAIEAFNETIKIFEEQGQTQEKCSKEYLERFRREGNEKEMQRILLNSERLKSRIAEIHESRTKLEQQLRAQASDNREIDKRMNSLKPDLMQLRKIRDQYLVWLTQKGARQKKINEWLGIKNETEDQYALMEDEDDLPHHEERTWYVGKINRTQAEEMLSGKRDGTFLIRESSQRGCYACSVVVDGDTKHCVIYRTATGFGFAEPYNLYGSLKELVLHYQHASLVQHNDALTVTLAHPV
Chain of SH2D2A SH2 domain (Q9NP31 95-186 limits assumed): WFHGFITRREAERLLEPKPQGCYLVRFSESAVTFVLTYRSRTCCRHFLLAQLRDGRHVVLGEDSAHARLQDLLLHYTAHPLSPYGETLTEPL
T9 sequence (P07947 158-255 limits assumed): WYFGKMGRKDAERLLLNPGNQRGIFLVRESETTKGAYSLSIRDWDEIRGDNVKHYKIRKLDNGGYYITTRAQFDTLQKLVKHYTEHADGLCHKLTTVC
T7 sequence (Q13882 78-170 limits assumed): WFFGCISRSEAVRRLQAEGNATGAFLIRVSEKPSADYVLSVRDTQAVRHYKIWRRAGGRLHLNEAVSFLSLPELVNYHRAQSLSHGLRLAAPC
Chain of SHC2-PTB domain (P98077 147-329 limits assumed): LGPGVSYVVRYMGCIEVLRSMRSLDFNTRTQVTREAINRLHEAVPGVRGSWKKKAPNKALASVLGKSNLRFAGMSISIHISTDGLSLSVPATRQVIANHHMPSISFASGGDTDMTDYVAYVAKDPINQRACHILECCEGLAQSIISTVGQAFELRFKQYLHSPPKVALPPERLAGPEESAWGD
T8 sequence (P12931 151-248 limits assumed): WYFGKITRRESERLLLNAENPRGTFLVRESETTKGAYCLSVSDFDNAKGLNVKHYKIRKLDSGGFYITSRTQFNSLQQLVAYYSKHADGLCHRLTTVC
T4 sequence (P27986 333-428 limits assumed): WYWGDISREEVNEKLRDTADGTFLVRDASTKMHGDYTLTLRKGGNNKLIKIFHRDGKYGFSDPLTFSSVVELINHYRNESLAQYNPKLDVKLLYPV
Chain of NCK2 SH2 domain (O43639 285-380 limits assumed): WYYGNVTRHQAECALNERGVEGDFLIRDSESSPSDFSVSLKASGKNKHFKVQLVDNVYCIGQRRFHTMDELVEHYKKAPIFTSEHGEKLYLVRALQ

Take `CC(C)C[C@H](NC(=O)[C@H](CCC(=O)O)NC(=O)[C@H](Cc1c[nH]c2ccccc12)NC(=O)[C@@H](NC(=O)[C@@H](NC(=O)[C@@H](NC(=O)CNC(=O)[C@H](Cc1ccc(O)cc1)NC(=O)[C@H](CO)NC(=O)[C@H](Cc1c[nH]c2ccccc12)NC(=O)[C@@H](NC(=O)[C@@H](N)CC(=O)O)C(C)C)C(C)C)[C@@H](C)O)C(C)C)C(=O)N[C@@H](CC(=O)O)C(=O)O` [ErbB1 Y900 (non-phospho)]: the Kd in test [1] worked out at 6.93 µM; on SHC2-PTB domain it was 5.42 µM.

Take `CC[C@H](C)[C@H](NC(=O)[C@H](Cc1c[nH]c2ccccc12)NC(=O)[C@H](CC(C)C)NC(=O)CNC(=O)[C@H](CCCCN)NC(=O)[C@H](Cc1ccc(OP(=O)(O)O)cc1)NC(=O)[C@@H](NC(=O)[C@@H](NC(=O)CNC(=O)[C@@H](N)Cc1ccccc1)[C@@H](C)O)C(C)C)C(=O)N1CCC[C@H]1C(=O)N[C@@H](CCC(=O)O)C(=O)N[C@@H](CC(=O)O)C(=O)O` [ErbB1 pY727] (HELM PEPTIDE1{F.G.T.V.[O=C([C@H](Cc1ccc(OP(=O)(O)O)cc1)N[*:1])[*:2]].K.G.L.W.I.P.E.D}$$$$V2.0): the Kd in [2] is 3.15 µM; on SH2D1A SH2 domain, 2.71 µM; on SH2D1B SH2 domain it was 0.24 µM; in test [3] it was 11.5 µM. Besides, the “KD range of recruitment of SH2D1A (SHD1A [sic])” value at SH2D1A SH2 domain (FP saturation assay) is “in the nM KD range”. Also, the “KD range of recruitment of SH2D1B” value on SH2D1B SH2 domain (FP saturation assay) is reported as “in the nM KD range”.

Take `CC(C)C[C@H](NC(=O)[C@H](Cc1ccc(OP(=O)(O)O)cc1)NC(=O)[C@H](CCC(=O)O)NC(=O)[C@@H]1CCCN1C(=O)[C@H](CC(N)=O)NC(=O)[C@@H](N)CCC(=O)O)C(=O)N[C@H](C(=O)N1CCC[C@H]1C(=O)N[C@@H](CCC(N)=O)C(=O)NCC(=O)NCC(=O)N[C@@H](C)C(=O)N[C@@H](CC(=O)O)C(=O)O)[C@@H](C)O` [ErbB2 1196 13-mer]: the affinity at NCK2 SH2 domain, expressed as Kd, was 3.72 µM.

Take `CC(C)C[C@H](NC(=O)[C@H](Cc1ccc(O)cc1)NC(=O)[C@H](CC(C)C)NC(=O)[C@@H]1CCCN1C(=O)[C@H](CCC(=O)O)NC(=O)[C@H](CC(N)=O)NC(=O)[C@@H](NC(=O)[C@H](Cc1ccc(OP(=O)(O)O)cc1)NC(=O)[C@H](CCC(=O)O)NC(=O)[C@H](CC(=O)O)NC(=O)[C@H](CCC(=O)O)NC(=O)[C@H](C)NC(=O)[C@H](CCCCN)NC(=O)[C@@H]1CCCN1C(=O)[C@@H]1CCCN1C(=O)CNC(=O)[C@@H](N)CC(N)=O)C(C)C)C(=O)N[C@@H](CC(=O)O)C(=O)O` [ErbB4 1202 18-mer] (HELM PEPTIDE1{N.G.P.P.K.A.E.D.E.[O=C([C@H](Cc1ccc(OP(=O)(O)O)cc1)N[*:1])[*:2]].V.N.E.P.L.Y.L.D}$$$$V2.0): the Kd turned out to be 5.39 µM on PIK3R1-N SH2 domain; 2.41 µM at PIK3R3-N SH2 domain; 1.21 µM in [4]; 2.04 µM at PTK6 SH2 domain; 2.3 µM on SRC SH2 domain; 8.4 µM at YES1 SH2 domain. Moreover, the Kd came to 1.92 µM on PLCG1-C SH2 domain, 2.29 µM on GRAP2 SH2 domain, 1.84 µM in test [1] and 6 µM on SH2D2A SH2 domain.

In the case of “LGSGAFGTVpYKGIWVPEd [ErbB4 pY733 (18-mer), N-terminally rhodamine-labeled 18-mer phosphopeptide]”, the Kd was 0.8 µM and 0.4 µM at SH2 and PTB domains (PM Assay Replicate # 39307, Array Fabrication # 39320); 0.79 µM on SH2 and PTB domains (PM Assay Replicate # 39334, Array Fabrication # 39329).
